SMILES strings stand for the structures. Where only a bound is given, the exact number is not on record here.

What all share (assay type): cell-based
Experiment [1] addresses T1, Transient receptor potential cation channel, subfamily V, member 3 (Rattus norvegicus, UniProt E9PU00).
T1 sequence (E9PU00 whole entry): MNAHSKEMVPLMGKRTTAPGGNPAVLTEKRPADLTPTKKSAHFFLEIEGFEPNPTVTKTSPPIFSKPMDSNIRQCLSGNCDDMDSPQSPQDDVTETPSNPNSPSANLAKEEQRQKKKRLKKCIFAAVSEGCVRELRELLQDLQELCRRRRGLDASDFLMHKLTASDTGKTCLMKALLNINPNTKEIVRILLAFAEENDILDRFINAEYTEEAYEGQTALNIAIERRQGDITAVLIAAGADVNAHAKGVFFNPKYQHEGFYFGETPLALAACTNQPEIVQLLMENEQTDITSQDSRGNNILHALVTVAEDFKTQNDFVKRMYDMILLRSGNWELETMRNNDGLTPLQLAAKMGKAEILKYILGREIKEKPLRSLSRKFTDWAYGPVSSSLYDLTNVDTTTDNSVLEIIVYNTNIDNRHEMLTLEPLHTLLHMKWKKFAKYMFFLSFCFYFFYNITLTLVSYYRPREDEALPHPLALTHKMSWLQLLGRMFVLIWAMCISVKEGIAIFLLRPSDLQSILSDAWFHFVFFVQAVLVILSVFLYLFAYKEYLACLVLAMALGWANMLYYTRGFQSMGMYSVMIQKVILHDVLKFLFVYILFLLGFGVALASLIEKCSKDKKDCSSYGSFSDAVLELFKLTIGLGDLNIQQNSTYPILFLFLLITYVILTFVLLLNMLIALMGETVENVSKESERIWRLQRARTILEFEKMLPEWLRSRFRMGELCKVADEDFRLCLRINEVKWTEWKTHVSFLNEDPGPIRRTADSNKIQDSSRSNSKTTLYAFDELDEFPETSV
The experiment in a line: Antagonist activity at […] expressed in HEK293 cells assessed as inhibition of thymol-induced increase in intracellular calcium level pretreated for 5 mins followed by thymol addition by Fluo-4-AM dye based fluorescence assay. On the technique in general: Calcium flux is commonly read through the fluorescence of an indicator in the cells.

In experiment [2] the target is T2, Transient receptor potential cation channel subfamily A member 1 (Rattus norvegicus, UniProt Q6RI86). The experiment in a line: Agonist activity at rat TRPA1 expressed in HEK293 cells assessed as increase in intracellular calcium level by fluo-4-AM dye based fluorescence assay.
T2 sequence (Q6RI86 whole entry): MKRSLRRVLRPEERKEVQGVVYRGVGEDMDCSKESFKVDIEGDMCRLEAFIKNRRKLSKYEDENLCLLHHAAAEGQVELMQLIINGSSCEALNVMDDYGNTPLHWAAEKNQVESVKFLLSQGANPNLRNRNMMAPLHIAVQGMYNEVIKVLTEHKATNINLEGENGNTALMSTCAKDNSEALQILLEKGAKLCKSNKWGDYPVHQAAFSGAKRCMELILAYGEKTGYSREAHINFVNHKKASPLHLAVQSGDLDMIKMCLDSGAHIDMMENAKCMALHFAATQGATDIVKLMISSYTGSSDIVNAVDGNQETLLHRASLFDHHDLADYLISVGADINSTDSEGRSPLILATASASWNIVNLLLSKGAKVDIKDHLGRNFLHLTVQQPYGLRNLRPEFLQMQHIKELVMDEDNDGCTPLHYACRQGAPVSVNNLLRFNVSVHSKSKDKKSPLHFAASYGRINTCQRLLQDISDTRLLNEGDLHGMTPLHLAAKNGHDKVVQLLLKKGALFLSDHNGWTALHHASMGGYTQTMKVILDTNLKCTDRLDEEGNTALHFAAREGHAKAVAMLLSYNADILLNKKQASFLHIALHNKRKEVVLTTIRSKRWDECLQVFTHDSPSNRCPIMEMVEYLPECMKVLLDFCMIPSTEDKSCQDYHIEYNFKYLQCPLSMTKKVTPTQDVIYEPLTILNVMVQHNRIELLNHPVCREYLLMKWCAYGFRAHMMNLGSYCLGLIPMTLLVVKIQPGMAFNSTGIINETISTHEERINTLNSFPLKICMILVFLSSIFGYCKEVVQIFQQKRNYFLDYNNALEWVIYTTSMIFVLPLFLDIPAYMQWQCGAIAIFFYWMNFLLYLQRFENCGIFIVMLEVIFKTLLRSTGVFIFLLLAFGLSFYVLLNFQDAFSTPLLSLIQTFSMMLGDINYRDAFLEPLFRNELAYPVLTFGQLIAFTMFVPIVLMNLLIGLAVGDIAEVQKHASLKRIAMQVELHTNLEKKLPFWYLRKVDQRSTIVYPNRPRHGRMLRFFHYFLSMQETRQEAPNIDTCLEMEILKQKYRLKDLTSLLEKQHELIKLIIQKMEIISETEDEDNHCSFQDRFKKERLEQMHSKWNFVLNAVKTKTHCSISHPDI
Experiment [3] concerns the target Transient receptor potential cation channel subfamily M member 8 (Rattus norvegicus, UniProt Q8R455). Description: Antagonist activity at rat TRPM8 expressed in HEK293 cells assessed as inhibition of icilin-induced increase in intracellular calcium level pretreated for 5 mins followed by icilin addition by Fluo-4-AM dye based fluorescence assay.
Experiment [4] has as its target T3, Transient receptor potential cation channel subfamily V member 2 (Rattus norvegicus, UniProt Q9WUD2).
T3 sequence (Q9WUD2 whole entry): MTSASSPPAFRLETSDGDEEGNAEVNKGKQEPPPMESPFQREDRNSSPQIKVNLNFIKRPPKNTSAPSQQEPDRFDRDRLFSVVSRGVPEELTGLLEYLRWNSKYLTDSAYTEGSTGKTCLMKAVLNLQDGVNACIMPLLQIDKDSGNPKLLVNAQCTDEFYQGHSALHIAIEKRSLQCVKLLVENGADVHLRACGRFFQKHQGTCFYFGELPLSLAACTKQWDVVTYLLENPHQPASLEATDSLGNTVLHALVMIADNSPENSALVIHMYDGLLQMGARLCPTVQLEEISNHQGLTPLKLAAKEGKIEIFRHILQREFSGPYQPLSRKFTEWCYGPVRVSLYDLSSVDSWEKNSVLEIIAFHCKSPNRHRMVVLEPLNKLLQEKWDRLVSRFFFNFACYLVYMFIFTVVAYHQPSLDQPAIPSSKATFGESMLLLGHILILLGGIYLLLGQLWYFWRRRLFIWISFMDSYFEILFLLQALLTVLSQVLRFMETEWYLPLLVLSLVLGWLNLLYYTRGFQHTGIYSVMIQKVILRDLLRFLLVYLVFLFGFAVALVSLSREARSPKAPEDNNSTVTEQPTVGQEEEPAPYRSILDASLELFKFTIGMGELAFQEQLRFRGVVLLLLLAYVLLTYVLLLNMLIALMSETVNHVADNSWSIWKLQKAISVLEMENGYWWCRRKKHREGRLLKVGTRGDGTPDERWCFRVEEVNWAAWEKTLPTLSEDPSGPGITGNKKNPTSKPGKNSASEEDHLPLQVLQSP
The experiment in a line: Antagonist activity at rat TRPV2 expressed in HEK293 cells assessed as inhibition of LPC-induced increase in intracellular calcium level pretreated for 5 mins followed by LPC addition by Fluo-4-AM dye based fluorescence assay.

Experiment [5] has as its target Transient receptor potential cation channel subfamily A member 1 (Rattus norvegicus) (UniProt Q6RI86). The experiment in a line: Agonist activity at rat TRPA1 expressed in HEK293 cells assessed as increase in intracellular calcium level by fluo-4-AM dye based fluorescence assay relative to AITC.
For experiment [6], the target named is T4, Transient receptor potential cation channel subfamily V member 1 (Homo sapiens, UniProt Q8NER1). The experiment in a line: Antagonist activity at human TRPV1 expressed in HEK293 cells assessed as inhibition of capsaicin-induced increase in intracellular calcium level pretreated for 5 mins followed by capsaicin addition by Fluo-4-AM dye based fluorescence assay.
T4 sequence (Q8NER1 whole entry): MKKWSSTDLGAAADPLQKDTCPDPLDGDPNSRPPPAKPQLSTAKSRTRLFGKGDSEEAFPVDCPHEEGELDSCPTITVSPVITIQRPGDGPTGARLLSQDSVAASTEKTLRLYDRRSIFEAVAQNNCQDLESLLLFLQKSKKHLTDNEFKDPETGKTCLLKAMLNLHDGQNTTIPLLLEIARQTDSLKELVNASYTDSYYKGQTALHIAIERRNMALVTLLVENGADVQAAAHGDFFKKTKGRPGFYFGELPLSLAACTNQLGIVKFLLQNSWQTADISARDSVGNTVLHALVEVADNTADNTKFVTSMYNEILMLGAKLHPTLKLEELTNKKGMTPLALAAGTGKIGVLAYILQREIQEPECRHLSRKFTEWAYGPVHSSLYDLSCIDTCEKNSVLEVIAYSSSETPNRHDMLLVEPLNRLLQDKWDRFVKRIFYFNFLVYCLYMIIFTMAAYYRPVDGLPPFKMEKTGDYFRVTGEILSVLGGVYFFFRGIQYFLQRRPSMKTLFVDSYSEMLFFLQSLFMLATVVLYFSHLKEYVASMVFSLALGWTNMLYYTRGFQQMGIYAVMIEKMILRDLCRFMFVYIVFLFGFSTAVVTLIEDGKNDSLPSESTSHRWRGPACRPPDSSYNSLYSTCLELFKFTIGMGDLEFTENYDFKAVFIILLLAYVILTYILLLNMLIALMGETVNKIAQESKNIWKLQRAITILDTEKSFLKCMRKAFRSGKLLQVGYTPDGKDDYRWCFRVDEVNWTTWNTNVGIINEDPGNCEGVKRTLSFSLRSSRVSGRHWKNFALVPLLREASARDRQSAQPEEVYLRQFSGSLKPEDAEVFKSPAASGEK

In experiment [7] the target is T3, Transient receptor potential cation channel subfamily V member 2. Description: Agonist activity at rat TRPV2 expressed in HEK293 cells assessed as increase in intracellular calcium level by Fluo-4-AM dye based fluorescence assay.
Experiment [8] addresses T5, Transient receptor potential cation channel subfamily V member 2 (Rattus norvegicus) (UniProt Q9WUD2).
T5 sequence (whole entry): T3 sequence (Q9WUD2 whole entry)
The experiment in a line: Agonist activity at rat TRPV2 expressed in HEK293 cells assessed as increase in intracellular calcium level by Fluo-4-AM dye based fluorescence assay relative to ionomycin.

Experiment [9] deals with T4, Transient receptor potential cation channel subfamily V member 1. The experiment in a line: Agonist activity at human TRPV1 expressed in HEK293 cells assessed as increase in intracellular calcium level by Fluo-4-AM dye based fluorescence assay.
Experiment [10] has as its target T1, Transient receptor potential cation channel, subfamily V, member 3. Description: Agonist activity at […] expressed in HEK293 cells assessed as increase in intracellular calcium level by Fluo-4-AM dye based fluorescence assay.
Experiment [11] concerns the target T6, Transient receptor potential cation channel, subfamily V, member 3 (Rattus norvegicus) (UniProt E9PU00).
T6 sequence (whole entry): T1 sequence (E9PU00 whole entry)
Description: Agonist activity at […] expressed in HEK293 cells assessed as increase in intracellular calcium level by Fluo-4-AM dye based fluorescence assay relative to ionomycin.

The target in experiment [12] is T7, Transient receptor potential cation channel subfamily V member 4 (Rattus norvegicus, UniProt Q9ERZ8). Description: Agonist activity at rat TRPV4 expressed in HEK293 cells assessed as increase in intracellular calcium level by Fluo-4-AM dye based fluorescence assay.
T7 sequence (Q9ERZ8 whole entry): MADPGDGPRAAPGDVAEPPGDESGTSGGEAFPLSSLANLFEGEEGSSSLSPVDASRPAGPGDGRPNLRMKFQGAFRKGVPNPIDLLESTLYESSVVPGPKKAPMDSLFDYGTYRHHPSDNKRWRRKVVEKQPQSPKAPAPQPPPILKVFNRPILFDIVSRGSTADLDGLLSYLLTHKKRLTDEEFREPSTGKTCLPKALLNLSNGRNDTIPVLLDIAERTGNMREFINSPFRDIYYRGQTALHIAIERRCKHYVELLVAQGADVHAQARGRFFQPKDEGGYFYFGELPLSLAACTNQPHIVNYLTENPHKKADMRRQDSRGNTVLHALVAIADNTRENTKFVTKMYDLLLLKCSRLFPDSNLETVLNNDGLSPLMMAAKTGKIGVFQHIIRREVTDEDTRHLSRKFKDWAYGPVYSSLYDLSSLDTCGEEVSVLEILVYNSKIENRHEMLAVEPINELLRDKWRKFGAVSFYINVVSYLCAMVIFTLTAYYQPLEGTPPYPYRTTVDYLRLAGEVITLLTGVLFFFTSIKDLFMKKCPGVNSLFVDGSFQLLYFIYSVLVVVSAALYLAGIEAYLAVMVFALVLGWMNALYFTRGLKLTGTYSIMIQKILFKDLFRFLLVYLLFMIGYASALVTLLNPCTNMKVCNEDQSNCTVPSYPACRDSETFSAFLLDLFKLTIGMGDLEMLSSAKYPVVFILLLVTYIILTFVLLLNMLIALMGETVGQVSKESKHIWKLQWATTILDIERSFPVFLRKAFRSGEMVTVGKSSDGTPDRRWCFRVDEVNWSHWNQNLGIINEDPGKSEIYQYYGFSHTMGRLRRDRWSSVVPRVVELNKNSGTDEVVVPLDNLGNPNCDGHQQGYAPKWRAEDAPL
In experiment [13] the target is T7, Transient receptor potential cation channel subfamily V member 4. The experiment in a line: Antagonist activity at […] expressed in HEK293 cells assessed as inhibition of GSK1016790A-induced increase in intracellular calcium level pretreated for 5 mins followed by GSK1016790A addition by Fluo-4-AM dye based fluorescence assay.
For experiment [14], the target named is T4, Transient receptor potential cation channel subfamily V member 1. Description: Agonist activity at human TRPV1 expressed in HEK293 cells assessed as increase in intracellular calcium level by Fluo-4-AM dye based fluorescence assay relative to ionomycin.
The target of experiment [15] is Transient receptor potential cation channel subfamily V member 4 (Rattus norvegicus) (UniProt Q9ERZ8). The experiment in a line: Agonist activity at rat TRPV4 expressed in HEK293 cells assessed as increase in intracellular calcium level by Fluo-4-AM dye based fluorescence assay relative to ionomycin.
Sequence of Transient receptor potential cation channel subfamily V member 4 (Rattus norvegicus) (Q9ERZ8 whole entry): as above
In experiment [16] the target is T2, Transient receptor potential cation channel subfamily A member 1. The experiment in a line: Antagonist activity at rat TRPA1 expressed in HEK293 cells assessed as inhibition of AITC-induced increase in intracellular calcium level pretreated for 5 mins followed by AITC addition by fluo-4-AM dye based fluorescence assay.

Sequence of Transient receptor potential cation channel subfamily A member 1 (Rattus norvegicus) (Q6RI86 whole entry): as the sequence (Q6RI86 whole entry) above
Sequence of Transient receptor potential cation channel subfamily M member 8 (Q8R455 whole entry): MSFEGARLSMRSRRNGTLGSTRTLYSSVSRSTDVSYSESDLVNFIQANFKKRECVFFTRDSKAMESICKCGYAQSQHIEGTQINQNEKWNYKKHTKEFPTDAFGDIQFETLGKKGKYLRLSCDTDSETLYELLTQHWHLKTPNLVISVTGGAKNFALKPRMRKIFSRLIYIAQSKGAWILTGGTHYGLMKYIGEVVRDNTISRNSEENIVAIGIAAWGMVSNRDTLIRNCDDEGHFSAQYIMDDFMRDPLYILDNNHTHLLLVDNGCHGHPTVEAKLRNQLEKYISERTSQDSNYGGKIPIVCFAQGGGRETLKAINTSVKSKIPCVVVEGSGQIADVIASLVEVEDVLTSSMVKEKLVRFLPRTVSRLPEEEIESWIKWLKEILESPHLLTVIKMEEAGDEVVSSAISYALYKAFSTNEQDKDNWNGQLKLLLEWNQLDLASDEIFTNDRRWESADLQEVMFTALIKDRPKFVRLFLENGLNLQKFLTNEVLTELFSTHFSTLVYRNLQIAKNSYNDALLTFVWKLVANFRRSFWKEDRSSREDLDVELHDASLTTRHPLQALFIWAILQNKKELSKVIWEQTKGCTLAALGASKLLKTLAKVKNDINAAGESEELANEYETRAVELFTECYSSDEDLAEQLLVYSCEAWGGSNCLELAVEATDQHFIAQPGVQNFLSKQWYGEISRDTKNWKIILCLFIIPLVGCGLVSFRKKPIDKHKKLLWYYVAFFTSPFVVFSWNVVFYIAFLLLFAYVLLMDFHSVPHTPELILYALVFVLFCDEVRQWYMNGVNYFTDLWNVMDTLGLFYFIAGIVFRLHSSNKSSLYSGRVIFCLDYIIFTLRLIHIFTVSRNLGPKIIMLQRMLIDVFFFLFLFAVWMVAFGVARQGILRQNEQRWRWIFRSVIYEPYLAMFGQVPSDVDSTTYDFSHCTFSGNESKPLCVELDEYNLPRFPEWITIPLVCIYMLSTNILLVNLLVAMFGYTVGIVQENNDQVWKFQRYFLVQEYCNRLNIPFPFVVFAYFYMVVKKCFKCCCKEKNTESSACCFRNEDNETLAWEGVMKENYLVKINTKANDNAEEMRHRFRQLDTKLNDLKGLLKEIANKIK

As usually defined, the IC50 is the concentration at which inhibition is half-maximal. Broadly, the EC50 is the midpoint of the concentration-response curve. With `CCCCCc1cc(O)c2c(c1)O[C@]1(C2)[C@H](C)CCCC1(C)C`, the IC50 is over 50 µM in experiment [1]; over 50 µM in [3]; over 50 µM in experiment [4]; 37 µM in experiment [6]; 39.7 µM in [13]; 1.7 µM in [16]. For the same compound, the EC50 in experiment [2] is 1.3 µM; in [7] (read-out: EC50), 6.4 µM; in experiment [9] (read-out: EC50), 4.9 µM; in [10] (hek293), “Not Active”; in experiment [12] (hek293), “Not Active”. For the same compound, the Efficacy in [5] was 102%; in experiment [8] it was 27.5%; in experiment [11], under 10%; in experiment [14], 32.3%; in experiment [15], under 10%.
For `CCCCCc1cc(O)c2c(c1)O[C@]1(C)CCCC(C)(C)[C@H]1C2`, the IC50 in experiment [1] is over 50 µM; in experiment [3], over 100 µM; in experiment [4] it was over 100 µM; in experiment [6] it was over 100 µM; in experiment [13] it was over 100 µM; in experiment [16], 0.26 µM. The EC50 in experiment [2] was 0.23 µM; in [7] (read-out: EC50), 8.4 µM; in experiment [9] (hek293), “Not Active”; in [10] (hek293) it was “Not Active”; in experiment [12] (hek293), “Not Active”. Also, the Efficacy in experiment [5] is 95.2%; in experiment [8], 41.3%; in experiment [11] it was under 10%; in [14], under 10%; in experiment [15] it was under 10%.
Turning to `CCCCCc1cc(O)c2c(c1)O[C@@]1(C)CCCC(C)(C)[C@H]1C2`, the IC50 in experiment [1] is 8 µM; in [3], 17.1 µM; in experiment [4], over 100 µM; in experiment [6], 5.9 µM; in [13] it was 3.9 µM; in experiment [16] it was 0.27 µM. For the same compound, the EC50 in experiment [2] was 0.29 µM; in experiment [7] (read-out: EC50), 5.8 µM; in experiment [9] (read-out: EC50) it was 2.6 µM; in [10] (read-out: EC50), 6.7 µM; in experiment [12] (hek293), “Not Active”. The Efficacy was 98.5% in experiment [5]; 31.7% in [8]; 17.5% in experiment [11]; 48.5% in [14]; under 10% in experiment [15].
With `CCCCCc1cc(O)c2c(c1)O[C@]1(C)CC[C@@H](I)C(C)(C)[C@H]1C2`, the IC50 in experiment [1] is over 50 µM; in experiment [3], 7.2 µM; in [4], 2.3 µM; in experiment [6], over 100 µM; in [13] it was over 100 µM; in experiment [16] it was 4.8 µM. Besides, the EC50 was 2 µM in [2]; “Not Active” in experiment [7] (hek293); “Not Active” in experiment [9] (hek293); “Not Active” in experiment [10] (hek293); “Not Active” in experiment [12] (hek293). The Efficacy was 90% in experiment [5]; under 10% in [8]; under 10% in [11]; under 10% in experiment [14]; under 10% in [15].
As for `CCCCCc1cc(O)c2c(c1)O[C@]1(C2)[C@@H](C)CCCC1(C)C`, the IC50 in [1] is 12.8 µM; in experiment [3], over 50 µM; in [4], 13.7 µM; in experiment [6] it was 7.1 µM; in experiment [13], 4.3 µM; in experiment [16], 0.45 µM. Also, the EC50 in [2] was 0.49 µM; in experiment [7] (read-out: EC50), 4.7 µM; in experiment [9] (read-out: EC50), 1.8 µM; in experiment [10] (hek293), “Not Active”; in [12] (read-out: EC50), 3.3 µM. For the same compound, the Efficacy was 108% in experiment [5]; 37.7% in experiment [8]; under 10% in experiment [11]; 43.9% in experiment [14]; 13.9% in [15].
As for `CCCCCc1cc(O)c2c(c1)OC(C)(CCCC(C)(C)c1ccc(C)cc1)CC2` (stereo unspecified), the IC50 is over 50 µM in [1]; over 100 µM in experiment [3]; 4.5 µM in [4]; over 50 µM in [6]; over 100 µM in experiment [13]; 0.32 µM in experiment [16]. Also, the EC50 in experiment [2] is 0.35 µM; in [7] (hek293) it was “Not Active”; in experiment [9] (hek293), “Not Active”; in experiment [10] (hek293), “Not Active”; in experiment [12] (read-out: EC50), 18 µM. The Efficacy in experiment [5] was 120%; in [8], under 10%; in experiment [11] it was under 10%; in experiment [14], under 10%; in [15], 18%.

The values are drawn from ChEMBL document CHEMBL4229500, “Iodine-mediated cyclization of cannabigerol (CBG) expands the cannabinoid biological and chemical space” (Bioorg Med Chem, 2018).
